# According to US9551718B2, “TMEM120A ion channel modulator” (priority 2014, dated 2017):
# Key:
# [1] = tested on: TMEM120A; assay: shRNA knockdown of TMEM120A in kidney epithelial cells (mIMCD), mechanosensitivity; type: cell-based, mouse; details: lentiviral particles
# Protocol: Knockdown was performed by infecting the cells in culture with lentiviral particles expressing an shRNA against TMEM120A and a puromycin resistance gene. This mean of selection enabled to identify cells that had taken up the shRNA. A quantitative polymerase chain reaction was then performed to verify that mRNA levels for TMEM120A were down. The shRNA sequence is […] TTTG (SEQ ID NO: 4).
# [2] = tested on: OA mice; assay: Behavioral pain score in the OA mouse model after injection of an MSC blocker; type: in vivo; details: injection around 28 days following MIA
# Protocol: (§1) Osteoarthritis is induced by injection of MIA (25 μg dissolved in 5 μl physiological saline) in the mouse knee joint. Control mice receive saline injection. The previously-described knee-bend test^28 is used to assess mechanical allodynia at the primary site of OA pain, as this test provides information regarding pain induced by movement of the affected joint^28 (FIG. 2a). Briefly, each test consists of 5 flexions and 5 extensions of the knee joint, and the total number of vocalization/struggle is recorded. The knee mechanical withdrawal threshold is determined with the Pressure Application Measurement (PAM) device, as previously described^132. Briefly, mice are gently restrained and a force transducer wrapped around the experimenter's thumb is pressed against the knee joint. […] Once the mouse withdraws its knee, the sensor identifies the maximum force applied before the withdrawal.
# In an in vivo mouse OA model as described in Example 1, the OA mice further received around 28 days following injection of MIA an injection of a vehicle or either a toxin (GsMTx4 or gadolinium) blocking the MSCs.
# [3] = tested on: mechanically-activated slowly-adapting (SA) current; details: sensory neurons; cited from earlier work
# [4] = biological target: T1, TMEM120A (Homo sapiens, UniProt Q9BXJ8); assay: Cobalt precipitate accumulation in CHO cells stably expressing TMEM120A exposed to hypotonic media; type: cell-based; details: cells pretreated with blocker
# T1 construct: expressed in transfected cells
# T1 sequence (Q9BXJ8 1-343): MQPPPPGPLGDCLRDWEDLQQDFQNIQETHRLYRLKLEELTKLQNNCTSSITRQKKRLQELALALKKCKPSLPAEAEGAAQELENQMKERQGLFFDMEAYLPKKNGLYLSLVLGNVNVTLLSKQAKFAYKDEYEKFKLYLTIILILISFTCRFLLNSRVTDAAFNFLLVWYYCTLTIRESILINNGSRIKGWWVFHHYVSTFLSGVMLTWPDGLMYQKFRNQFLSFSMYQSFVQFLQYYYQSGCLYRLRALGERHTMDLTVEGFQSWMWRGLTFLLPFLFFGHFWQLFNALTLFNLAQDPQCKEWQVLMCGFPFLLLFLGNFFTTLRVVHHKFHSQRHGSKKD
# Description: In an embodiment, the assay comprises exposing CHO cells stably expressing TMEM120A (or controls) to hypotonic media. The membrane stretch caused by the swelling opens the channels, enabling the influx of calcium ions and other molecules such as cobalt if present in the media. Quantitating the ion channel activity after the cobalt enters the cells can comprise treating the cells with ammonium sulphide (1.2% Sigma # A1952), then fixing them with paraformaldehyde, then amplified through the silver enhancement method and measuring the amount of cobalt precipitate compared to a control.
# CHO cells stably expressing TMEM120A (or controls) were exposed to hypotonic media. The membrane stretch caused by the swelling opens the channels, enabling the influx of calcium ions. In one alternative, calcium ions are substituted for cobalt After cobalt enters the cells, it is precipitated with ammonium sulfide, then the cells are fixed for example with paraformaldehyde, the precipitate is amplified through the silver enhancement method (by following steps provided by the commercial supplier, Sigma).
# [5] = tested on: cationic stretch-activated ion channels; details: from the extracellular side; cited from earlier work
# [6] = tested on: MSC activity in knee-innervating nociceptors; assay: Outside-out patch recording of mechanically-evoked MSC current in knee-innervating nociceptors; type: cell-based, mouse
# Protocol: Isolated mouse sensory neurons are obtained by enzymatic digestion of the dorsal root ganglia L3-L4 followed by mechanical dispersion. Joint-innervating neurons are identified by the presence of Fluorogold (FG), a retrograde tracer injected in the knee joint 72 hours prior to dissection. […] Transgenic mice that express the fluorescent protein TdTomato in nociceptors are generated by crossing Crerecombinase-dependent TdTomato reporter mice to Trpv1-Cre mice (FIG. 4). In this approach, recording can be made specifically from articular nociceptors (FG- and TdTomato-positive neurons).
# Experiments are done for example 1 hour after plating the isolated neurons in petri dishes, or after 3 days in culture (for example for conducting siRNA experiments). Whole-cell^137,138 and cell-attached^100,102 recordings are obtained using glass pipettes mounted to amplifier headstages driven by motorized micromanipulators. Signals are amplified using multi-clamp 700B amplifiers. All experimental protocols, data acquisition and analysis are performed using the Clampex® and Clampfit™ software.
# MSCs are activated using different approaches. In whole-cell recordings, a computer driven stimulating probe is brought near the cell membrane, then brief steps of 0.5 μm amplitude are made toward the cell at a 45 degree angle using a motorized 3-axis micromanipulator. In cell-attached recordings, brief pulses of negative pressure are applied through the recording electrode to increase membrane tension and evoke MSC opening. These pressure pulses are generated by a high-speed pressure clamp device previously validated^100,102.
# An outside-out patch is formed and the minimal positive pressure (+P) is applied to open MSCs. 5 μM GsMTx4 is superfused and the protocol is run again. GsMTx4 is then washed and the same patch undergoes one final protocol run. […] Likewise, wash causes the recovery of the reduction (Kruskal-Wallis with Dunn's multiple comparisons, n=161, 85, 100 for control, GsMTx4 and wash, respectively.
# [7] = tested on: MIA injected mice; assay: Knee flexion-extension pain score after intra-articular injection in MIA mice; type: in vivo, mouse; details: for analgesia, knee flexion-extension pain score: intra-articular
# Protocol: as §1
# The GsMTx4 peptide sequence is […] (SEQ ID NO: 5). […] Moreover, it confirms that intra-articular injections can reach the nerve terminals of knee-innervating nociceptors. […] This indicates the analgesia is not due to the peptide leaking out of the joint to have a systemic effect. N=6-10 for GsMTx4 injections, N=9 for all groups in lidocaine trial.
# [8] = tested on: OA mice; assay: Von Frey test of secondary mechanical allodynia after hindpaw injection; type: in vivo, mouse
# Protocol: Von Frey filaments are used to assess the secondary mechanical allodynia in the hindpaw (FIG. 2a). Mechanical withdrawal threshold is assessed by touching the plantar surface of the hindpaw with von Frey filaments using the up-down method as previously described^133. Positive withdrawals are counted as biting, licking and/or withdrawal of the paw during the 3 sec stimulus. In the knee-bend and PAM tests, MSC blockers are injected in the knee joint. In the von Frey test, they are injected in the intraplantar region.
# To determine whether MSCs in nerve terminals at the primary site of the pathology (knee) contribute to mechanical allodynia in OA, the MSC blockers, GsMTx4 or gadolinium are injected in the knee joint of OA mice. Behavioral experiments include the knee-bend test^28 and the knee mechanical withdrawal test. To determine if MSCs contribute to secondary mechanical allodynia, GsMTx4 or gadolinium is injected in the ipsilateral hindpaw and assess secondary allodynia using the von Frey test. To determine whether these channels contribute to mechanosensitivity in the absence of allodynia, the blockers are injected in the knee joint or hindpaw of control mice.
compound,measurement,setting,value
"CCGGTTCCTGCTGGTCTGGTATTATCTCGAGATAATACCAGACCAGCAGGAATT TTTG (CCGGTTCCTGCTGGTCTGGTATTATCTCGAGATAATACCAGACCAGCAGGAATTTTTG; expressed or natural sequence) [shRNA against TMEM120A, short hairpin RNA against TMEM120A expressed from lentiviral particles]",mechanosensitivity,[1],reduces mechanosensitivity
[Gd] [gadolinium],pain level as measured by a behavioral score,[2],significantly decreases the pain level
same,block of SA current,[3],blocked
same,accumulation of cobalt precipitate on hypotonic stimuli,[4],accumulation can be prevented
GCLEFWWKCNPNDDKCCRPKLKCSKLFKLCNFSF (listed as Grammostola spatulata) [GsMTx4],pain level as measured by a behavioral score,[2],significantly decreases the pain level
same,block of SA current,[3],blocked
same,block of cationic stretch-activated ion channels,[5],block cationic stretch-activated ion channels
same,accumulation of cobalt precipitate on hypotonic stimuli,[4],accumulation can be prevented
same,mean open time of the channel,"[6]; 5 μM superfused, outside-out patch",mean open time is also significantly reduced
same,mechanically-evoked current (normalized to control trace),"[6]; 5 μM superfused, outside-out patch, minimal positive pressure",significantly reduces the mechanically-evoked current
same,reversibility of current reduction on wash,[6]; after wash of 5 μM GsMTx4,this reduction is recovered following wash
same,"analgesia, knee flexion-extension pain score",[7]; 5 μM,unable to produce analgesia
same,"analgesia, knee flexion-extension on the ipsilateral knee",[7]; 50 μM injected in the contralateral knee,does not provide analgesia
same,"analgesia, knee flexion-extension pain score","[7]; 50 μM, ipsilateral knee, vs saline",significant analgesia compared to vehicle
same,secondary allodynia,[8]; intraplantar injection 15 days after OA induction,significant and reversible attenuation of the secondary allodynia
same,mechanical sensitivity (withdrawal threshold),"[8]; intraplantar injection, naïve mice",does not affect mechanical sensitivity
same,duration of effect on mechanical hypersensitivity,"[8]; ipsilateral hindpaw injection, MIA mice",≤ 24 h
N.N.N.N.N.N.N.N.N.N.N.N.N.N.[Cl-].[Cl-].[Cl-].[Cl-].[Cl-].[Cl-].[O-2].[O-2].[Ru+3].[Ru+3].[Ru+4] [ruthenium red],block of SA current,[3],blocked
CCN(CC)CC(=O)Nc1c(C)cccc1C [lidocaine],percentage of analgesia,"[7]; 5% in DMSO, intra-articular injection, vs vehicle",significantly larger percentage of analgesia compared to vehicle
